Reference: US5633144A, “Assay pad and method for determination of the presence of total coliforms” (priority 1994, dated 1997)
Read-outs that look alike come from different tables or passages of the source.

How the values were obtained:
[1] = cited from earlier work
[2] = Solubility and storage stability of CPRG; type: physicochemical; details: 50 mM K-phosphate buffer containing 1 mM MgCl2, pH 7.5, 4° C.
Protocol: CPRG was dissolved in 50 mM K-phosphate buffer containing 1 mM MgCl2. […] When the beta-galactosidase catalzyed hydrolysis of CPRG occurs, the resulting product on the MetPAD™ is purple and, thus, is easily detected visibly.

beta-galactosidase [3] = target: T1, beta-galactosidase (Escherichia coli, UniProt P00722); type: biochemical, E. coli EW1b
T1 construct: one convenient source of beta-galactosidase is bacteria which produce this enzyme in useful amounts; endogenous in cells; host or cells: E. coli EW1b (Coli Genetic Stock Culture, Yale University), IPTG-induced, freeze-dried in trehalose, rehydrated

beta-galactosidase [4] = target: T1, beta-galactosidase; type: biochemical, E. coli EW1b; remark: listed apart in the source
[5] = test system: beta-galactosidase of E. coli EW1b; type: biochemical; details: for Color intensity, trehalose medium: freeze-dried in trehalose medium (22.4% w/v); for Color intensity, distilled water: freeze-dried in distilled water
beta-galactosidase [6] = target: T1, beta-galactosidase; type: biochemical, E. coli EW1b; design: key: +++++: maximum color intensity; -: complete enzyme inactivation
E. coli EW1b cells = assay: Enhancement of beta-galactosidase production by inducer; type: cell-based; details: E. coli EW1b cells treated with inducer
Description: As described above, one convenient source of beta-galactosidase is bacteria which produce this enzyme in useful amounts. Advantageously, the enzyme produced by the bacteria is readily accessible to the heavy metal and the substrate. […] Among the bacteria investigated by the applicants are E. coli C3000, E. coli EW1b, and a mixed culture of beta-galactosidase producers isolated from wastewater. E. coli C3000 is available from the American Type Culture Collection (ATCC), 12301 Parklawn Drive, Rockville, Md. 20852 USA. The culture has been assigned the accession number ATCC 15597 by the repository. E. coli EW1b is available from the Coli Genetic Stock Culture, Yale University, New Haven, Conn. The mixed culture was obtained following inoculation of LB-lactose-SDS broth with activated sludge effluent. Although these bacteria would perform well in the assay of the subject invention, E. coli C3000 was not as sensitive to heavy metal toxicity as E. coli EW1b or the mixture of beta-galactosidase producing bacteria. Moreover, due to potential problems in maintaining a mixed culture of bacteria, E. coli EW1b is the preferred microbe. […]
3. […] The bacterial suspension is then diluted with 20 ml of fresh medium, amended with 1 ml of 0.2% (w/v) solution of isopropyl-beta-thiogalactoside (IPTG) and then allowed to grow to absorbance A550 =0.4-0.5.

[7] = Stability of beta-galactosidase in freeze-dried cells; type: physicochemical, E. coli EW1b
Protocol: A. Preparation of freeze-dried cells
1. Stock cultures of E. coli EW1b are stored in 40% glycerol solution at -14° C. to -20° C.
2. Fifty μL of the stock culture are inoculated into 5 ml of LB-lactose medium (Bacto-tryptone: 1%; yeast extract: 0.5%; NaCl: 1.0%; K2 HPO4 : 0.15%; Lactose: 1%).
3. Cells are grown overnight at 35° C. The bacterial suspension is then diluted with 20 ml of fresh medium, amended with 1 ml of 0.2% (w/v) solution of isopropyl-beta-thiogalactoside (IPTG) and then allowed to grow to absorbance A550 =0.4-0.5.
4. Cells are centrifuged at 8000 RPM for 10 minutes.
5. The pellet is resuspended in distilled water.
6. The suspension is centrifuged for 10 minutes at 8000 RPM.
7. The suspension is resuspended in 2% trehalose to obtain an absorbance of A550 =0.2-0.25 (if using the MUGA pads for enzyme assay, an absorbance of A550 =0.10 is sufficient).
8. This suspension is dispensed in 3 ml aliquots in serum bottles.
9. The cells are frozen overnight at -40° C.
10. The frozen cells are freeze-dried for 24 hours and stored at subzero or at refrigerator temperature until used. […] Moreover, the enzyme was stable for at least 18 hours at 35° C.

[8] = 400 ppm, maximum concentration tested at which no inhibition was observed

T1 sequence (P00722 2-1024): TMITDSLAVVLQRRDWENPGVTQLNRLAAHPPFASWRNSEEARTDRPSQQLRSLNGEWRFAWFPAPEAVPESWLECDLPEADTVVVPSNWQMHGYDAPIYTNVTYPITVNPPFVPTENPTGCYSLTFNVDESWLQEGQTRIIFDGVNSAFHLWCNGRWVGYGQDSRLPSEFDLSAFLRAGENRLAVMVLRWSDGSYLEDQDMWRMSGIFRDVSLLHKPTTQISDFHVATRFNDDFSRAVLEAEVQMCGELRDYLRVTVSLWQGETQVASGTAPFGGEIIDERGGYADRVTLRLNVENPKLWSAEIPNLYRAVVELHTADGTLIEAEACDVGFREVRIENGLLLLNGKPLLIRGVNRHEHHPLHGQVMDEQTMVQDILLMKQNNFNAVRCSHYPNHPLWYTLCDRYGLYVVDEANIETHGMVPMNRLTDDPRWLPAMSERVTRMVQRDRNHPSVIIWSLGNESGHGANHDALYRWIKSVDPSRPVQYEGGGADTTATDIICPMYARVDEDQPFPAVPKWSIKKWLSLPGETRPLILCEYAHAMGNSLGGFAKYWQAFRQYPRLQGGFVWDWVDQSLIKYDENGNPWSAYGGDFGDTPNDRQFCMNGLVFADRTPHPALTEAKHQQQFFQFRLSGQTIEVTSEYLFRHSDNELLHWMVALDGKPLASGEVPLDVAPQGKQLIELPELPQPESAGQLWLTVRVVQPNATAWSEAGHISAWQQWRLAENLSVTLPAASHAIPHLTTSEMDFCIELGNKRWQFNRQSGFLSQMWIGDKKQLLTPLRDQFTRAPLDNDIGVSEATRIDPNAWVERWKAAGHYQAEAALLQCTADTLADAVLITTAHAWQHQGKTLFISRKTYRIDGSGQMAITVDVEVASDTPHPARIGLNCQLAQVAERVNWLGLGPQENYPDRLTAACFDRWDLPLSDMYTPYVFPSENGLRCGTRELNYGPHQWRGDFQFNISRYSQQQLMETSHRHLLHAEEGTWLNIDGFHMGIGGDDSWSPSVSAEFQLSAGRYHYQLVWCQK

Compound: O=S1(=O)OC(c2ccc(O)c(Cl)c2)(c2ccc(O[C@@H]3O[C@H](CO)[C@H](O)[C@H](O)[C@H]3O)c(Cl)c2)c2ccccc21 (stereo partly drawn) [CPRG, chlorophenol red-beta-D-galactopyranoside]
- solubility [1]: more than 50 mmol/L
- stability ([1]; must be protected from light): stable at -20 °C
- stability of CPRG solution [2]: stable at 4 °C for one week

Compound: O=S(=O)([O-])[O-].[Cd+2] [Cadmium (CdSO4), Cadmium]
- MIC (Minimum Inhibitory Concentration) (beta-galactosidase [3]; MetPAD): 0.2 µg/mL
- Total inactivation (toxicant concentration which causes 100% inhibition of enzyme activity) (beta-galactosidase [3]; MetPAD): 1.0 mg/L
- heavy metal toxicity, response of MetPAD (in words) (beta-galactosidase [3]; MetPAD, 7 heavy metals): most toxic among the metals tested
- Minimum inhibitory concentration (MIC), CPRG pads (beta-galactosidase [4]; CPRG pads): 0.30 µg/mL
- Minimum inhibitory concentration (MIC), fluorescent pads (beta-galactosidase [4]; Fluorescent (MUGA) pads): 0.30 µg/mL
- Color intensity, trehalose medium ([5]; 1.0 ppm): -
- Color intensity, trehalose medium ([5]; 1.5 ppm): -

Compound: ClC(Cl)Cl [Chloroform]
- Color intensity (beta-galactosidase [6]; 3250 ppm): +++++

Compound: O.O.O.O.O.O=S(=O)([O-])[O-].[Cu+2] [Copper (CuSO4.5H2 O), Copper]
- MIC (Minimum Inhibitory Concentration) (beta-galactosidase [3]; MetPAD): 0.5 µg/mL
- Total inactivation (toxicant concentration which causes 100% inhibition of enzyme activity) (beta-galactosidase [3]; MetPAD): 1.0 mg/L
- Minimum inhibitory concentration (MIC), CPRG pads (beta-galactosidase [4]; CPRG pads): 0.50 µg/mL
- Minimum inhibitory concentration (MIC), fluorescent pads (beta-galactosidase [4]; Fluorescent (MUGA) pads): 0.25 µg/mL
- Color intensity, distilled water ([5]; 0.5 ppm): +++++
- Color intensity, distilled water ([5]; 0.8 ppm): +++++
- Color intensity, distilled water ([5]; 1.0 ppm): +++++
- Color intensity, trehalose medium ([5]; 1.0 ppm): -
- Color intensity, distilled water ([5]; 1.5 ppm): +++++
- Color intensity, trehalose medium ([5]; 1.5 ppm): -

Compound: C=O [Formaldehyde]
- Color intensity (beta-galactosidase [6]; 925 ppm, buffered to pH = 7.0 with K-phosphate buffer): +++++

Compound: CC(C)S[C@@H]1O[C@H](CO)[C@H](O)[C@H](O)[C@H]1O [IPTG, isopropyl-beta-thiogalactoside]
- beta-galactosidase production (E. coli EW1b cells): beta-galactosidase production could be enhanced

Compound: O=[N+]([O-])[O-].O=[N+]([O-])[O-].[Pb+2] [Lead (Pb(NO3)2), Lead]
- MIC (Minimum Inhibitory Concentration) (beta-galactosidase [3]; MetPAD): 5.0 µg/mL
- Total inactivation (toxicant concentration which causes 100% inhibition of enzyme activity) (beta-galactosidase [3]; MetPAD): 15.0 mg/L
- Minimum inhibitory concentration (MIC), CPRG pads (beta-galactosidase [4]; CPRG pads): 5.00 µg/mL
- Minimum inhibitory concentration (MIC), fluorescent pads (beta-galactosidase [4]; Fluorescent (MUGA) pads): 2.50 µg/mL
- Color intensity, trehalose medium ([5]; 3.0 ppm): +++++
- Color intensity, trehalose medium ([5]; 15.0 ppm): -
- Color intensity, trehalose medium ([5]; 20.0 ppm): -

Compound: Cl[C@H]1[C@H](Cl)[C@@H](Cl)[C@@H](Cl)[C@H](Cl)[C@H]1Cl [Lindane]
- Color intensity (beta-galactosidase [6]; 500 ppm): +++++

Compound: O.O.O.O.O.O.O=S(=O)([O-])[O-].[Ni+2] [Ni (NiSO4.6H2 O), Nickel]
- MIC (Minimum Inhibitory Concentration) (beta-galactosidase [3]; MetPAD): 8.0 µg/mL
- Total inactivation (toxicant concentration which causes 100% inhibition of enzyme activity) (beta-galactosidase [3]; MetPAD): 20.0 mg/L
- Minimum inhibitory concentration (MIC), CPRG pads (beta-galactosidase [4]; CPRG pads): 8.00 µg/mL
- Minimum inhibitory concentration (MIC), fluorescent pads (beta-galactosidase [4]; Fluorescent (MUGA) pads): 5.00 µg/mL

Compound: Oc1c(Cl)c(Cl)c(Cl)c(Cl)c1Cl [Pentachlorophenol]
- Color intensity (beta-galactosidase [6]; [8]): +++++

Compound: Oc1ccccc1 [Phenol]
- Color intensity (beta-galactosidase [6]; 3000 ppm): +++++

Compound: CCCCCCCCCCCCOS(=O)(=O)[O-].[Na+] [Sodium dodecyl sulfate]
- Color intensity (beta-galactosidase [6]; 3000 ppm): +++++

Compound: Cn1cc(-c2ccccc2)c(=O)c(-c2cccc(C(F)(F)F)c2)c1 [Sonar (Fluoridone), Fluoridone]
- Color intensity (beta-galactosidase [6]; [8]): +++++

Compound: O=S(=O)([O-])[O-].[Zn+2] [Zinc (ZnSO4), Zinc]
- MIC (Minimum Inhibitory Concentration) (beta-galactosidase [3]; MetPAD): 0.5 to 1 µg/mL
- Total inactivation (toxicant concentration which causes 100% inhibition of enzyme activity) (beta-galactosidase [3]; MetPAD): 3.0 mg/L
- Minimum inhibitory concentration (MIC), CPRG pads (beta-galactosidase [4]; CPRG pads): 0.5 to 1.00 µg/mL
- Minimum inhibitory concentration (MIC), fluorescent pads (beta-galactosidase [4]; Fluorescent (MUGA) pads): 0.50 µg/mL
- Color intensity, distilled water ([5]; 0.5 ppm): +++++
- Color intensity, trehalose medium ([5]; 0.5 ppm): +++++
- Color intensity, distilled water ([5]; 1.0 ppm): +++++
- Color intensity, trehalose medium ([5]; 3.0 ppm): -
- Color intensity, trehalose medium ([5]; 5.0 ppm): -
- Color intensity, trehalose medium ([5]; 7.5 ppm): -
- Color intensity, distilled water ([5]; 10.0 ppm): -
- Color intensity, trehalose medium ([5]; 10.0 ppm): -

Compound: O=[N+]([O-])c1ccc(O)cc1 [p-nitrophenol]
- Color intensity (beta-galactosidase [6]; 110 ppm): +++++

Compound: Chromium [Cr (K2 Cr2 O7)]
- MIC (Minimum Inhibitory Concentration) (beta-galactosidase [3]): 25.0 µg/mL
- Total inactivation (toxicant concentration which causes 100% inhibition of enzyme activity) (beta-galactosidase [3]): 50.0 mg/L
- Minimum inhibitory concentration (MIC), CPRG pads (beta-galactosidase [4]): 25.00 µg/mL
- Minimum inhibitory concentration (MIC), fluorescent pads (beta-galactosidase [4]): 25.00 µg/mL

Compound: Mercury [Mercury (HgSO4)]
- MIC (Minimum Inhibitory Concentration) (beta-galactosidase [3]; MetPAD): 0.5 µg/mL
- Total inactivation (toxicant concentration which causes 100% inhibition of enzyme activity) (beta-galactosidase [3]; MetPAD): 1.0 mg/L
- Minimum inhibitory concentration (MIC), CPRG pads (beta-galactosidase [4]; CPRG pads): 0.25 µg/mL
- Minimum inhibitory concentration (MIC), fluorescent pads (beta-galactosidase [4]; Fluorescent (MUGA) pads): 0.25 µg/mL
- Color intensity, distilled water ([5]; 0.5 ppm): +++++
- Color intensity, distilled water ([5]; 1.0 ppm): +++++
- Color intensity, trehalose medium ([5]; 1.0 ppm): -
- Color intensity, distilled water ([5]; 1.5 ppm): +++++
- Color intensity, trehalose medium ([5]; 1.5 ppm): -
- Color intensity, trehalose medium ([5]; 2.0 ppm): -

Compound: beta-galactosidase: enzyme of freeze-dried E. coli EW1b cells
- stability of beta-galactosidase activity of freeze-dried cells ([7]; 4° C.): stable for several weeks
- stability of the enzyme ([7]; 35° C.): at least 18 hours
